Results reported in publication PMC3713097 (Chemical research in toxicology, 2013).
Like-named read-outs stand apart in the source and are kept apart here.

Tests used:
P450 2A6 [1] = molecular target: T1, P450 2A6 (Homo sapiens, UniProt P11509); details: 10 nM P450, 2.5 µM procarcinogen, means ± range of duplicate experiments
T1 sequence (P11509 1-494): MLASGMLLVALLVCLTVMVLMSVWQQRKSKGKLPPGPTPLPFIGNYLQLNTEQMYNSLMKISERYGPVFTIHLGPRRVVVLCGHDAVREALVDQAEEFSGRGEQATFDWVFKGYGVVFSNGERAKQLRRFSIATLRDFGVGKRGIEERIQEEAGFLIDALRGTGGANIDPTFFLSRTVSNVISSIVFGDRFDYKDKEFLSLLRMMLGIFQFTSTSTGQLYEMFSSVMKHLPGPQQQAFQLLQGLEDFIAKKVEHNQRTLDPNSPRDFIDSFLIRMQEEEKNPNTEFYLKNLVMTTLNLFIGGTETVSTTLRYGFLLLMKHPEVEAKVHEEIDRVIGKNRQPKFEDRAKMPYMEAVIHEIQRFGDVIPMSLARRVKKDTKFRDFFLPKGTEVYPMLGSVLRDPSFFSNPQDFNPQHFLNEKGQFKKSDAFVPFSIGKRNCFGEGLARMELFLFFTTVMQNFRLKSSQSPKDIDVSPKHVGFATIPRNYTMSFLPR

human P450 2A13 = molecular target: T2, human P450 2A13 (Homo sapiens, UniProt Q16696); details: 10 nM P450, 2.5 µM procarcinogen, means ± range of duplicate experiments
T2 sequence (Q16696 31-494 limits assumed): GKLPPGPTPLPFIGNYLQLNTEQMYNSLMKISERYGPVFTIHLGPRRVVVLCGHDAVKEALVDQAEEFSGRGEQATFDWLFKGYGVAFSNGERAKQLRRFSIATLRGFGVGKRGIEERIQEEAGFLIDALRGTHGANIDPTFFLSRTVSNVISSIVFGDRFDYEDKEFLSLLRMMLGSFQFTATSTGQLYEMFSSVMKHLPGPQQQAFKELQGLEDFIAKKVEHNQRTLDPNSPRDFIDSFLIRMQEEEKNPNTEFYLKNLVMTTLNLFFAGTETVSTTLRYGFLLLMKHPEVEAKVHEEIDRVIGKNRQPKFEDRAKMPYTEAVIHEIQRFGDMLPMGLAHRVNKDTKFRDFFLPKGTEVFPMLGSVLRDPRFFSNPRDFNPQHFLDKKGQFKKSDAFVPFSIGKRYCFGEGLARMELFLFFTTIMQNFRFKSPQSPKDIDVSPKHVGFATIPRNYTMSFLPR

P450 1B1 [2] = molecular target: T3, P450 1B1 (Homo sapiens, UniProt Q16678, L432V); details: 10 nM P450, 2.5 µM procarcinogen, means ± range of duplicate experiments
T3 sequence (Q16678 1-543 L432V): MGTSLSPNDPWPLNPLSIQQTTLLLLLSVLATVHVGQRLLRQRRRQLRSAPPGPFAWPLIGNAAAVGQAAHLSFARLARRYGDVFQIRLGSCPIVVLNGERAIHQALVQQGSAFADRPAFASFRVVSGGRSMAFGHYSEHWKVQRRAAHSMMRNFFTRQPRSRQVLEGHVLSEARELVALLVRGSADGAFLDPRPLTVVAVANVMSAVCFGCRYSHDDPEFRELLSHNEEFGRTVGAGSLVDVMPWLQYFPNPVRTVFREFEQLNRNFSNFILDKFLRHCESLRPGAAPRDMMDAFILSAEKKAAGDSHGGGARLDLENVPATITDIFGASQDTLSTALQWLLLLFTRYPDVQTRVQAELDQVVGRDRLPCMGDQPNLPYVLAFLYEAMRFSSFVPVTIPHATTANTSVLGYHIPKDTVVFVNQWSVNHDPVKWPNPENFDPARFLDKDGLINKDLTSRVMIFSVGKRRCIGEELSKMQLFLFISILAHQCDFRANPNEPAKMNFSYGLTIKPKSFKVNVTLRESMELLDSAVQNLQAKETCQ

P450 2A13 = molecular target: T4, P450 2A13 (Homo sapiens, UniProt Q16696); assay: Spectral binding titration with purified P450 2A13
T4 sequence (Q16696 with tags, fused parts or gaps limits assumed): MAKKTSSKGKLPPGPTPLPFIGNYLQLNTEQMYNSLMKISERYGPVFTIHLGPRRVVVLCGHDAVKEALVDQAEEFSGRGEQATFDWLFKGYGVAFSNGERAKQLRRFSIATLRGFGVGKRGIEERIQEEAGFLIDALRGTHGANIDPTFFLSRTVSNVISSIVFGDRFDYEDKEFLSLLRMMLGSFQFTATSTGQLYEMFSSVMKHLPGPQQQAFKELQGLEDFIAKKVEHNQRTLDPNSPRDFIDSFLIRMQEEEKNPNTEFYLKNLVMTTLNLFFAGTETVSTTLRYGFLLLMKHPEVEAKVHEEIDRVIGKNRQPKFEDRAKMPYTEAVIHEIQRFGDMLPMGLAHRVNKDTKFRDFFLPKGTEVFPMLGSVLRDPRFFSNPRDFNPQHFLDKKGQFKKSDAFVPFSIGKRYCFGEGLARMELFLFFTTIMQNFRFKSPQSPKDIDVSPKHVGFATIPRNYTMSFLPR

P450 1B1 [3] = molecular target: T3, P450 1B1; assay: Spectral binding titration with purified P450 1B1
P450 2A6 [4] = molecular target: T1, P450 2A6; assay: Spectral binding titration with purified P450 2A6
[5] = P450 2A13, Type I spectra, ± SE
[6] = P450 1B1, Reverse Type I spectra
[7] = P450 1B1, Reverse Type I spectra, ± SE

Row | Compound | activation of procarcinogens umu gene expression (P450 2A6 [1]) | activation of procarcinogens umu gene expression (human P450 2A13) | activation of procarcinogens umu gene expression (P450 1B1 [2]) | Kd (P450 2A13) | ΔAmax/ Ks (P450 1B1 [3]; [6]) | ΔAmax (P450 1B1 [3]; [7]) | Kd (P450 2A6 [4]) | Kd (P450 1B1 [3]) | other results
1 | O=[N+]([O-])c1ccc2ccc3cccc4ccc1c2c34 [1-nitropyrene] | <10 units/min/nmol P450 | <10 units/min/nmol P450 | <10 units/min/nmol P450 | 0.23 ± 0.08 µM | 0.026 | 0.037 ± 0.001 | > 20 µM |  | ΔAmax/ Ks (P450 2A13; P450 2A13, Type I spectra): 0.24; ΔAmax (P450 2A13; [5]): 0.055 ± 0.004; Kd (P450 1B1 [3]; human, pH 7.4): 1.4 ± 0.001 µM
2 | Nc1ccc2cc3ccccc3cc2c1 [2-AA, 2-aminoanthracene] | 1200 ± 89 units/min/nmol P450 | 560 ± 40 units/min/nmol P450 | 1900 ± 210 units/min/nmol P450 | > 20 µM | 0.0026 | 0.085 ± 0.076 | > 20 µM | 33 ± 36 µM | 
3 | CC(=O)Nc1ccc2c(c1)Cc1ccccc1-2 [2-AAF, 2-acetamidofluorene] | <10 units/min/nmol P450 | <10 units/min/nmol P450 | <10 units/min/nmol P450 |  | 0.0018 | 0.035 ± 0.009 |  | 20 ± 7.8 µM | 
4 | Nc1ccc2c(c1)Cc1ccccc1-2 [2-AF, 2-aminofluorene] |  |  |  | > 20 µM |  |  | > 20 µM | 4.6 ± 1.3 µM | 
5 | Cc1cc2ccccc2c2ccc3ccccc3c12 [5-methylchrysene] |  |  |  | > 20 µM | 0.0064 | 0.044 ± 0.008 |  | 6.9 ± 2.4 µM | 
6 | Cc1cc2ccccc2c2ccc3c(c12)C=CC(O)C3O (stereo not drawn) [5MeCh-1,2-diol, 1,2-dihydroxy-1,2-dihydro-5-methylchrysene] | 52 ± 11 units/min/nmol P450 | 86 ± 15 units/min/nmol P450 | 2600 ± 180 units/min/nmol P450 | > 20 µM |  |  |  | > 20 µM | 
7 | Cc1c2c(c(C)c3ccccc13)C(O)C(O)c1ccccc1-2 (stereo not drawn) [7,12-DMBA-5,6-diol, 5,6-dihydroxy-5,6-dihydro-7,12-dimethylbenz[a]anthracene] |  |  |  |  | 0.0012 | 0.044 ± 0.003 |  | 38 ± 3.7 µM | 
8 | c1ccc2cc3c(ccc4ccccc43)cc2c1 [B[a]A, benz[a]anthracene] |  |  |  |  |  |  |  |  | Kd (P450 2A13; read-out: Ks, P450 2A13, Type I spectra, 1.0 µM P450, pH 7.4, ± SE): > 20 µM; Kd (P450 1B1 [3]; read-out: Ks, P450 1B1, Reverse Type I spectra, 1.0 µM P450, pH 7.4, ± SE): > 20 µM
9 | c1ccc2c(c1)cc1ccc3cccc4ccc2c1c34 [B[a]P, benzo[a]pyrene] |  |  |  | > 20 µM |  |  | > 20 µM | > 20 µM | 
10 | OC1c2cccc3ccc4c5ccccc5cc(c4c23)C1O (stereo not drawn) [B[a]P-4,5-diol, 4,5-dihydroxy-4,5-dihydrobenzo[a]pyrene] |  |  |  |  |  |  |  | 23 ± 10 µM | 
11 | c1ccc2c(c1)ccc1ccc3ccccc3c12 [B[c]Phe, benzo[c]phenanthrene] | 22 ± 8 units/min/nmol P450 | 55 ± 11 units/min/nmol P450 | 25 ± 10 units/min/nmol P450 | 1.1 ± 0.44 µM | 0.016 | 0.039 ± 0.001 | > 20 µM | 2.5 ± 0.31 µM | ΔAmax/ Ks (P450 2A13; P450 2A13, Type I spectra): 0.045; ΔAmax (P450 2A13; [5]): 0.049 ± 0.005
12 | OC1C=Cc2c(ccc3ccc4ccccc4c23)C1O (stereo not drawn) [B[c]Phe-3,4-diol, 3,4-dihydroxy-3,4-dihydrobenzo[c]phenanthrene] | 33 ± 10 units/min/nmol P450 | 45 ± 8 units/min/nmol P450 | 140 ± 21 units/min/nmol P450 | > 20 µM |  |  |  | > 20 µM | 
13 | OC1C=Cc2c(ccc3c4ccccc4c4ccccc4c23)C1O (stereo not drawn) [B[g]C-11,12-diol, 11,12-dihydroxy-11,12-dihydrobenzo[g]chrysene] | <10 units/min/nmol P450 | <10 units/min/nmol P450 | 207 ± 25 units/min/nmol P450 |  |  |  |  |  | 
14 | OC1C=C2c3ccccc3-c3cccc(c32)C1O (stereo not drawn) [FA-2,3-diol, 2,3-dihydroxy-2,3-dihydrofluoranthene] | 36 ± 8 units/min/nmol P450 | 88 ± 13 units/min/nmol P450 | 30 ± 11 units/min/nmol P450 | 0.86 ± 0.16 µM | 0.0058 | 0.043 ± 0.003 |  | 7.4 ± 1.3 µM | ΔAmax/ Ks (P450 2A13; P450 2A13, Type I spectra): 0.060; ΔAmax (P450 2A13; [5]): 0.052 ± 0.003
15 | Cn1c(N)nc2c3cccnc3ccc21 [IQ, 2-amino-3-methylimiidazo[4,5-f]quinoline] | 75 ± 11 units/min/nmol P450 | 430 ± 40 units/min/nmol P450 | 220 ± 29 units/min/nmol P450 |  |  |  |  |  | 
16 | Cn1c(N)nc2ncc(-c3ccccc3)cc21 [PhIP, 2-amino-1-methyl-6-phenylimidazo[4,5-b]pyridine] | <10 units/min/nmol P450 | <10 units/min/nmol P450 | <10 units/min/nmol P450 |  |  |  |  | > 20 µM | 
17 | c1cc2c3c(cccc3c1)CC2 [acenaphthene] | <10 units/min/nmol P450 | <10 units/min/nmol P450 | <10 units/min/nmol P450 | 0.48 ± 0.1 µM |  |  | 1.2 ± 0.21 µM | > 20 µM | ΔAmax/ Ks (P450 2A13; P450 2A13, Type I spectra): 0.15; ΔAmax (P450 2A13; [5]): 0.074 ± 0.005; ΔAmax/ Ks (P450 2A6 [4]; P450 2A6, Type I spectra): 0.057; ΔAmax (P450 2A6 [4]; P450 2A6, Type I spectra, ± SE): 0.068 ± 0.002; spectral interaction with P450 2A6 (Type I binding spectra) (P450 2A6 [4]; result in words): interacted
18 | OC1C=Cc2c(ccc3c2ccc2ccccc23)C1O (stereo not drawn) [chrysene-1,2-diol, 1,2-dihydroxy-1,2-dihydrochrysene] | <10 units/min/nmol P450 | <10 units/min/nmol P450 | 220 ± 19 units/min/nmol P450 | > 20 µM |  |  |  | > 20 µM | 
19 | c1ccc2c(c1)ccc1c3ccccc3ccc21 [chrysene] |  |  |  | > 20 µM |  |  |  | > 20 µM | 
20 | aflatoxin B1 [AFB1] |  |  |  |  |  |  |  |  | Kd (P450 2A13; read-out: Ks, pH 7.4): > 20 µM; Kd (P450 2A6 [4]; read-out: Ks, pH 7.4): > 20 µM
